IC50 data for four molecules are collected here from patent US10202378B2, “Therapeutic compounds and uses thereof” (GENENTECH, INC., priority 2015, dated 2019).

The target of one experiment is TAF1-BD2 (Homo sapiens, UniProt P21675). The experiment can be described thus: TAF1-BD2 TR-FRET Binding Assay. To be noted: read-out: TAF1-BD2 HTRF IC50. Background: Time-resolved FRET reads energy transfer from a long-lived donor to a nearby acceptor.
The target in a further experiment is TAF1-BD1 (Homo sapiens, UniProt P21675). As to the kind of experiment: TAF1-BD1 TR-FRET Binding Assay. The conditions noted are these: read-out: TAF1-BD1 HTRF IC50.

By IC50 is commonly meant the concentration that gives 50% inhibition.

On to `C=CCCn1cc(C#CC(C)(O)C2CC2)c2c(C(=O)OCC)c(C)[nH]c2c1=O` (centres unmarked) [Example 46, ethyl 6-but-3-enyl-4-(3-cyclopropyl-3-hydroxy-but-1-ynyl)-2-methyl-7-oxo-1H-pyrrolo[2,3-c]pyridine-3-carboxylate], for which the IC50 on TAF1-BD2 was 133 nM; at TAF1-BD1, 2230 nM.

`CCOC(=O)c1c(C)[nH]c2c(=O)n(C)cc(C#CC(C)(O)C3CC3)c12` (single isomer, unassigned) [Example 92a, ethyl 4-(3-cyclopropyl-3-hydroxy-but-1-ynyl)-2,6-dimethyl-7-oxo-1H-pyrrolo[2,3-c]pyridine-3-carboxylate]: the IC50 on TAF1-BD2 turned out to be 33.2 nM; on TAF1-BD1, 154 nM.

Turning to `Cc1[nH]c2c(=O)n(C)cc(C#CC(C)(O)C3CC3)c2c1C1=NCC(C)(C)O1` (centres unmarked) [Example 204, 4-(3-cyclopropyl-3-hydroxy-but-1-ynyl)-3-(5,5-dimethyl-4H-oxazol-2-yl)-2,6-dimethyl-1H-pyrrolo[2,3-c]pyridin-7-one], the values for the IC50 at TAF1-BD2 and at TAF1-BD1 were 147 nM and 1030 nM, respectively.

As to `CCOC(=O)c1c(C)[nH]c2c(=O)n(C)cc(C#CC(C)(C)C(=O)N(C)C)c12` [Example 36, ethyl 4-[4-(dimethylamino)-3,3-dimethyl-4-oxo-but-1-ynyl]-2,6-dimethyl-7-oxo-1H-pyrrolo[2,3-c]pyridine-3-carboxylate], the figures for the half-inhibitory concentration (IC50) on TAF1-BD2 and at TAF1-BD1 were 375 nM and 1310 nM, respectively.
